According to ChEMBL document CHEMBL1151454, “Failures in clinical treatment of Staphylococcus aureus Infection with daptomycin are associated with alterations in surface charge, membrane phospholipid asymmetry, and drug binding” (Antimicrob Agents Chemother, 2008):
Values after ≈ are worked out from the molar mass of the structure shown. Non-standard residues stand in square brackets, D forms with d. Residues, ends and D or L forms follow the SMILES beside them. *: point of attachment. NHCH2CH2OH = OCCN*; For = O=C*

Legend:
Staphylococcus aureus [1] = experiment: Drug binding to daptomycin-transitional Staphylococcus aureus isolate 629 bloodstream form isolated from patient with endocarditis at 40 ug after 10 mins by radial diffusion assay; assay type: ADME, organism-based
Staphylococcus aureus [2] = experiment: Drug binding to daptomycin-nonsusceptible Staphylococcus aureus isolate 701 bloodstream form isolated from patient with endocarditis at 40 ug after 10 mins by radial diffusion assay; assay type: ADME, organism-based
Staphylococcus aureus [3] = experiment: Drug binding to daptomycin-nonsusceptible Staphylococcus aureus isolate 703 bloodstream form isolated from patient with endocarditis at 40 ug after 10 mins by radial diffusion assay; assay type: ADME, organism-based
Staphylococcus aureus [4] = experiment: Drug binding to methicillin-susceptible Staphylococcus aureus isolate 616 bloodstream form isolated from patient with endocarditis at 40 ug after 10 mins by radial diffusion assay; assay type: ADME, organism-based; settings: in vivo
Staphylococcus aureus [5] = experiment: Antibacterial activity against methicillin-susceptible Staphylococcus aureus isolate 616 bloodstream form isolated from patient with endocarditis after 18 hrs by microdilution technique; assay type: functional; settings: Staphylococcus aureus, 616, 18 h
Staphylococcus aureus [6] = experiment: Drug binding to daptomycin-nonsusceptible Staphylococcus aureus isolate 703 bloodstream form isolated from patient with endocarditis at 32 ug after 10 mins by radial diffusion assay; assay type: ADME, organism-based
Staphylococcus aureus [7] = experiment: Antibacterial activity against daptomycin-nonsusceptible Staphylococcus aureus isolate 701 bloodstream form isolated from patient with endocarditis after 18 hrs by microdilution technique; assay type: functional; settings: Staphylococcus aureus, 701, 18 h
Staphylococcus aureus [8] = experiment: Drug binding to daptomycin-transitional Staphylococcus aureus isolate 629 bloodstream form isolated from patient with endocarditis at 32 ug after 10 mins by radial diffusion assay; assay type: ADME, organism-based
Staphylococcus aureus [9] = experiment: Antibacterial activity against daptomycin-transitional Staphylococcus aureus isolate 629 bloodstream form isolated from patient with endocarditis after 18 hrs by microdilution technique; assay type: functional; settings: Staphylococcus aureus, 629, 18 h
Staphylococcus aureus [10] = experiment: Drug binding to daptomycin-nonsusceptible Staphylococcus aureus isolate 701 bloodstream form isolated from patient with endocarditis at 32 ug after 10 mins by radial diffusion assay; assay type: ADME, organism-based
Staphylococcus aureus [11] = experiment: Antibacterial activity against daptomycin-nonsusceptible Staphylococcus aureus isolate 703 bloodstream form isolated from patient with endocarditis after 18 hrs by microdilution technique; assay type: functional; settings: Staphylococcus aureus, 703, 18 h
Staphylococcus aureus [12] = experiment: Drug binding to methicillin-susceptible Staphylococcus aureus isolate 616 bloodstream form isolated from patient with endocarditis at 32 ug after 10 mins by radial diffusion assay; assay type: ADME, organism-based

| Drug uptake (Staphylococcus aureus [1]) [µg/mL] | Drug uptake (Staphylococcus aureus [2]) [µg/mL] | Drug uptake (Staphylococcus aureus [3]) [µg/mL] | Drug uptake (Staphylococcus aureus [4]) [µg/mL] | Compound | MIC (Staphylococcus aureus [5]) [mg/L] | Drug uptake (Staphylococcus aureus [6]) [µg/mL] | MIC (Staphylococcus aureus [7]) [mg/L] | Drug uptake (Staphylococcus aureus [8]) [µg/mL] | MIC (Staphylococcus aureus [9]) [mg/L] | Drug uptake (Staphylococcus aureus [10]) [µg/mL] | MIC (Staphylococcus aureus [11]) [mg/L] | Drug uptake (Staphylococcus aureus [12]) [µg/mL] |
| --- | --- | --- | --- | --- | --- | --- | --- | --- | --- | --- | --- | --- |
| 11.7 | 11.7 | 8 | 12.4 | H-ALYKKFKKKLLKSLKRLG-OH |  |  |  |  |  |  |  |  |
|  |  |  |  | CC(C)C[C@@H](NC(=O)[C@H](C)NC(=O)CNC(=O)[C@@H](NC=O)C(C)C)C(=O)N[C@@H](C)C(=O)N[C@@H](C(=O)N[C@H](C(=O)N[C@@H](C(=O)N[C@@H](Cc1c[nH]c2ccccc12)C(=O)N[C@H](CC(C)C)C(=O)N[C@@H](Cc1c[nH]c2ccccc12)C(=O)N[C@H](CC(C)C)C(=O)N[C@@H](Cc1c[nH]c2ccccc12)C(=O)N[C@H](CC(C)C)C(=O)N[C@@H](Cc1c[nH]c2ccccc12)C(=O)NCCO)C(C)C)C(C)C)C(C)C [GRAMICIDIN D] (For-VGA[dL]A[dV]V[dV]W[dL]W[dL]W[dL]W-NHCH2CH2OH) | 32 (≈ 17 µM) | 9 | 32 (≈ 17 µM) | 10 | 32 (≈ 17 µM) | 11 | 32 (≈ 17 µM) | 12 |
